Several values for one entry are separate records, joined by “and”; a condition that tells them apart may be missing. Equal values may be shown once.
Legend:
in vitro [1] = conditions: dog, CC50, compound alone, 72 h
MDCK-SIAT1 cells = conditions: for cytotoxic concentration (CC)50: dog
in vitro [2] = conditions: human, pH 7.4
[3] = target: H5 A/Vietnam/1203/2004 HA (Influenza A virus, UniProt Q5EP31); assay: biochemical; type: binding
[4] = system: H1N1 virus expressing A/Beijing/262/1995 (H1/Beijing); assay: microbe, parasite or virus in culture; type: cell-based; conditions: Influenza A virus, H1N1, 72 h, read-out: EC50, virus neutralization
Solubility in PBS = type: physicochemical; conditions: aqueous buffer
[5] = system: H1N1 virus expressing A/Solomon Islands/3/2006 (H1/SI06); assay: microbe, parasite or virus in culture; type: cell-based, influenza A virus
[6] = system: H5N1 pseudovirus expressing H5 A/Vietnam/1203/2004; assay: organism not typed; type: cell-based, influenza A virus; conditions: 72 h, read-out: EC50, virus neutralization
human cells = system: human cells; design: method as in PMID 30846569; conditions: cited from earlier work

SMILES	CC50 (in vitro [1])	cytotoxic concentration (CC)50 (MDCK-SIAT1 cells)	k el (in vitro [2]; 0.42 mg)	half-life (in vitro [2]; microsomes)	microsomal CLint (in vitro [2]; microsomes)	EC50 [3]	EC50 [4]	solubility (Solubility in PBS)	CC50 (MDCK-SIAT1 cells; read-out: CC50, compound alone, 72 h)	protection from infection (in words) [5]	EC50 ([5]; Influenza A virus, H1N1, 72 h, read-out: EC50, virus neutralization)	EC50 [6]	CC50 (human cells)
O=C(c1ccc(Cl)cc1Cl)N1CCO[C@H](c2ccccc2)C1 [F0045(R)]	138 µM	> 130 µM											
O=C(c1ccc(Cl)cc1Cl)N1CCO[C@@H](c2ccccc2)C1 [F0045(S)]	102 µM	> 130 µM	0.000283 s⁻¹	40.8 min	41 µL/min/mg	16.2 ± 3.4 µM	1.6 ± 0.1 µM	> 500 µM	157 µM and 84 µM and 98 µM	did not protect cells from infection	> 150 µM	22.8 ± 2.3 µM	
CC(=O)Nc1ccc2oc(-c3ccnc(C(=O)N4CCN([C@H](c5ccccc5)c5nnn(C)n5)CC4)c3)nc2c1 [JNJ4796]													> 10 µM
